The nature of data set [1]: Toxicity against Artemia salina assessed as mortality at 10 ug/ml. It is filed as organism-based. The conditions noted are these: in vivo, read-out: Activity.
Data set [2] in a line: Toxicity against Artemia salina assessed as mortality at 100 ug/ml. It is filed as organism-based. The conditions noted are these: in vivo, read-out: Activity.
The subject of data set [3] is Bacillus subtilis. In words: Antibacterial activity against Bacillus subtilis ATCC 6633 up to 24 ug by bioautographic test. It is filed as functional, organism-based.
Data set [4] concerns Biomphalaria glabrata. In words: Molluscicidal activity in Biomphalaria glabrata assessed as mortality at 2.5 ppm. Type of data set: functional.
Data set [5] relates to Penicillium oxalicum. Put plainly: Antifungal activity against Penicillium oxalicum CBS 219.30 by bioautographic test. Type of data set: functional.
Data set [6] relates to Micrococcus luteus. Put plainly: Antibacterial activity against Micrococcus luteus ATCC 9341 up to 24 ug by bioautographic test. It is filed as functional, organism-based.
Data set [7] deals with Escherichia coli. Put plainly: Antibacterial activity against Escherichia coli ATCC 25922 up to 24 ug by bioautographic test. Type of data set: functional, organism-based.
A short description of data set [8]: Toxicity against Artemia salina assessed as mortality at 120 ug/ml. It is filed as organism-based. The settings on record: in vivo, read-out: Activity.
In data set [9] the test system is Biomphalaria glabrata. In words: Molluscicidal activity in Biomphalaria glabrata assessed as mortality at 5 ppm. Type of data set: functional.
Data set [10] is described as follows: Toxicity against Artemia salina assessed as mortality at 12 ug/ml. The conditions noted are these: in vivo, read-out: Activity. Type of data set: organism-based.
The subject of data set [11] is Artemia salina. In words: Toxicity against Artemia salina assessed as mortality. It is filed as organism-based. The conditions noted are these: in vivo.
For data set [12], the system named is Biomphalaria glabrata. In words: Molluscicidal activity in Biomphalaria glabrata assessed as mortality at 6 ppm. Type of data set: functional, organism-based.

The results in this text go back to ChEMBL document CHEMBL1158933, “A new polyhalogenated monoterpene from the red alga Plocamium cartilagineum” (J Nat Prod, 1990).

Each structure is given as a SMILES string. Calls of active or inactive are those of the source. The rule behind the calls is not given here.

Take `C[C@]1(Cl)C[C@](C)(Br)[C@@H](/C=C/Cl)C[C@H]1Br`: the mortality at 10 ug/ml in [1] was found to be 20%. The mortality at 100 ug/ml in data set [2] turned out to be 100%. Moreover, the result in [3], in data set [6] and in data set [7] was inactive. The Activity in data set [4] was 100%. The MIC in [5] is 10 µg.

On to `C[C@]1(Cl)C[C@](C)(/C=C/Cl)[C@H](Br)C[C@@H]1Cl`, for which, in [8], the mortality at 120 ug/ml stood at 100%. In addition, the outcome in data set [3], in data set [6] and in data set [7] was inactive. Also, the Activity in data set [9] was 100%. This molecule also returned an MIC in data set [5] of 0.6 µg. In addition, the mortality at 12 ug/ml in data set [10] was determined as 26%.

Take `C[C@@](Cl)(/C=C/Br)[C@@H](Cl)/C=C/C(Cl)(CCl)CBr` (stereo partly specified): the result in [3], in data set [6], in data set [7] and in data set [12] was inactive. The Activity result in data set [11] is given as “Not Active”. Also, the MIC in data set [5] turned out to be 0.1 µg.

With `C=C(/C=C/[C@@H](Cl)[C@](C)(Cl)/C=C/Br)CCl` (relative stereo), the outcome in data set [3], in data set [6], in data set [7] and in data set [12] was inactive. The Activity entry in [11] is “Not Active”. Also, the MIC in data set [5] worked out at 0.1 µg.
